# Source: ChEMBL document CHEMBL1141141, “Novel, highly potent adenosine deaminase inhibitors containing the pyrazolo[3,4-d]pyrimidine ring system. Synthesis, structure-activity relationships, and molecular modeling studies” (J Med Chem, 2005)
# Molecular target: T1, Adenosine deaminase (Bos taurus, UniProt P56658)
# T1 sequence (P56658 whole entry): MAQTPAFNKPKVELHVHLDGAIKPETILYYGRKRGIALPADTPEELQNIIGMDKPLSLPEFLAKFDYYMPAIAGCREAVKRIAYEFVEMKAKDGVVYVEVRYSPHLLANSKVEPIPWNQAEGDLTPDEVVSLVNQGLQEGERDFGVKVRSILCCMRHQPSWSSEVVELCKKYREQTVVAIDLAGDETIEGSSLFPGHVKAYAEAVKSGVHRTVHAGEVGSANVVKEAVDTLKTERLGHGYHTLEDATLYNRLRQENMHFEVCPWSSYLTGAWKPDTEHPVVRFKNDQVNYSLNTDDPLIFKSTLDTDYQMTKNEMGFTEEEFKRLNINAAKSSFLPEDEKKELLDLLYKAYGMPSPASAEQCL
# Experiment: Inhibitory constant against bovine spleen Adenosine deaminase at >10e-5; n.a.=not active; call rule not given here
# Format: tissue-based
row,Ki,Structure (SMILES)
1,Not Active,Nc1ncnc2nn(CCc3ccccc3)cc12
2,Not Active,CCCCCCCCCCN1N=CC2C(N)=NC=NC21 (stereo not drawn)
3,Not Active,CCCCCCCCCCCCn1cc2c(N)ncnc2n1
4,Not Active,CCCCCCC(O)CN1N=CC2C(N)=NC=NC21 (stereo not drawn)

# Further lines, the compound ahead of its results:
row,Structure (SMILES),Ki
1,CCCCCCCCCCn1cc2c(N)nc(-c3ccccc3)nc2n1,Not Active
2,CCCCCCCCCCn1cc2c(NC(C)=O)ncnc2n1,Not Active
3,CCCCCCCCCCCCN1N=CC2C(N)=NC=NC21 (stereo not drawn),Not Active
4,NC1=NC=NC2C1C=NN2CCc1ccccc1 (stereo not drawn),Not Active
5,CCCCCCCCCCCN1N=CC2C(N)=NC=NC21 (stereo not drawn),Not Active
6,Nc1ncnc2nn(Cc3ccccc3)cc12,Not Active
7,CCCCCCn1cc2c(N)ncnc2n1,Not Active
8,NC1=NC=NC2C1C=NN2Cc1ccccc1 (stereo not drawn),Not Active

# Molecular target: T1, Adenosine deaminase
row,Ki,Structure (SMILES)
1,0.28 nM,CCCCCCCCC(O)Cn1cc2c(N)ncnc2n1 (stereo not drawn)
2,37.5 nM,CCCCCCCC[C@H](O)Cn1cc2c(N)ncnc2n1
3,66.1 nM,CCCCCCC(C(C)O)N1N=CC2C(N)=NC=NC21 (stereo not drawn)
4,0.053 nM,CCCCCCCC[C@@H](O)Cn1cc2c(N)ncnc2n1

# Second part, the compound before the results:
row,Structure (SMILES),Ki
1,CCCCCCC(O)Cn1cc2c(N)ncnc2n1 (stereo not drawn),1 nM
2,NC1=NC=NC2C1C=NN2CCO (stereo not drawn),4620 nM
